Tests used:
[1] = system: transient receptor potential (TRP) channels; conditions: cited from earlier work
human CB2 [2] = target: T1, human CB2 (Homo sapiens, UniProt P34972); assay: Cannabinoid Receptor 2 (CB2) activity, calcium FLIPR assay in CHO-K1 cells co-expressing human CB2 and G15; conditions: FIG. 1 and FIG. 2
human CB2 [3] = target: T1, human CB2; design: expressed in transfected cells; conditions: cited from earlier work

T1 sequence (P34972 whole entry): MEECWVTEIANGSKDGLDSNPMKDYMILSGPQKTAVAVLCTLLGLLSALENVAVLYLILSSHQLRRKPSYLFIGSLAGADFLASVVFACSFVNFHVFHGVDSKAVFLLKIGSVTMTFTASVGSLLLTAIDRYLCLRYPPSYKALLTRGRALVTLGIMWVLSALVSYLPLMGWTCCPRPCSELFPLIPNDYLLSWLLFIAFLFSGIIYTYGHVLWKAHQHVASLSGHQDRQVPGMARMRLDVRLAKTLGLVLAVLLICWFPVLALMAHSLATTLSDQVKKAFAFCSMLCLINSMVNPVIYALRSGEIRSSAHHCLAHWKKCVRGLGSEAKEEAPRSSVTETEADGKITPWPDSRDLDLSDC

SMILES | agonism at several TRP channels [1] | agonist potency at the human CB2 receptor compared with other phytocannabinoid agonists (CBD, CBCV) (human CB2 [2]) | potency at human CB2 receptor relative to CBD (human CB2 [2]; two independent experiments) | agonism at the CB2 receptor (known) (human CB2 [3])
CCCCCc1cc(O)c2c(c1)OC(C)(CCC=C(C)C)C=C2 (stereo not shown) [CBC, cannabichromene] | known agonist at several transient receptor potential (TRP) channels, albeit somewhat weakly | more potent agonist | at least 4 fold | –
C=C(C)[C@@H]1CCC(C)=C[C@H]1c1c(O)cc(CCCCC)cc1O [CBD, cannabidiol] | – | – | – | known agonist

Source: patent US20200000766A1, “COMPOSITIONS AND METHODS FOR AGONIZING THE CB2 RECEPTOR” (priority 2018, published 2020)
